Data from the OPERA property sets (Mansouri et al. 2018).
Values after ≈ are worked out from the molar mass of the structure shown.

| SMILES | solubility (20 °C) | solubility (25 °C) | also measured |
| --- | --- | --- | --- |
| O=S1(=O)NCc2ccccc21 |  |  | solubility (22 °C): 30.1 mM (≈ 5100 µg/mL) |
| NN=c1nc[nH]c2nccnc12 | 13.7 mM (≈ 2220 µg/mL) |  |  |
| O=C(O)CCC(=O)OC[C@@H](NC(=O)C(Cl)Cl)[C@H](O)c1ccc([N+](=O)[O-])cc1 |  |  | solubility (27 °C): 8.27 mM (≈ 3500 µg/mL) |
| O=P(Oc1ccccc1)(Oc1ccccc1)N1CCOCC1 |  | 7.2 mM (≈ 2300 µg/mL) |  |
| Nc1cc(S(=O)(=O)O)ccc1C(=O)O |  | 48.3 mM (≈ 10500 µg/mL) |  |
| CCCCOCCOCCOC(N)=O |  |  | solubility: 487 mM (≈ 100000 µg/mL) |
| O=C(O)COc1cccc(Cl)c1 | 6.38 mM (≈ 1190 µg/mL) |  |  |
| Cn1c(=O)ncc2nccnc21 | 42.5 mM (≈ 6900 µg/mL) |  |  |
| C[C@H](Nc1ccccc1Cl)C(=O)O (racemic) |  |  | solubility (30 °C): 4.71 mM (≈ 940 µg/mL) |
| Cc1nc2c(=O)[nH]c(=O)n(C)c2nc1C | 7.71 mM (≈ 1590 µg/mL) |  |  |
| NC(=O)C(N)C(O)C(=O)O (stereo unspecified) | 70.9 mM (≈ 10500 µg/mL) |  |  |
| CCCCCCCCS(=O)(=O)NS(=O)(=O)CCCCCCCC |  |  | solubility (30 °C): 0.122 mM (≈ 45 µg/mL) |
| CCCC[C@H](O)C(C)C |  | 15.4 mM (≈ 2010 µg/mL) |  |
| Cc1cnc(NS(=O)(=O)c2ccc(N)cc2)nc1C |  |  | solubility (29 °C): 0.719 mM (≈ 200 µg/mL) |
| CCOCCOC(=O)CCCCC(=O)OCCOCC |  |  | solubility: 8.61 mM (≈ 2500 µg/mL) |
| CCOC(=S)SC(CC(=O)O)C(=O)O (stereo unspecified) |  | 101 mM (≈ 24100 µg/mL) |  |
| COC(/C=C/C(OC)OC)OC |  |  | solubility: 1140 mM (≈ 200000 µg/mL) |
| CC(=O)/C(=N/O)c1ccccc1 | 4.29 mM (≈ 700 µg/mL) |  |  |
| CCCC(C)CC(C)O (stereo unspecified) |  | 13.2 mM (≈ 1730 µg/mL) |  |
| Cc1cc(C)nc(N)n1 |  | 325 mM (≈ 40000 µg/mL) |  |
| CC1NC(=O)CNC1=O (stereo unspecified) |  |  | solubility: 1950 mM (≈ 250000 µg/mL) |

| SMILES | solubility (20 °C) | solubility (25 °C) | also measured |
| --- | --- | --- | --- |
| O=C(O)CC1NC(=O)NC1=O (stereo unspecified) |  | 70.5 mM (≈ 11100 µg/mL) |  |
| O=C(O)CCNC(=O)Nc1ccc([N+](=O)[O-])cc1 | 1.97 mM (≈ 500 µg/mL) |  |  |
| COC1CCCC(C)O1 (stereo unspecified) |  |  | solubility: 256 mM (≈ 33300 µg/mL) |
| CCCC(O)(CCC)C(O)c1ccccc1 (stereo unspecified) | 2.25 mM (≈ 500 µg/mL) |  |  |
| O=C(O)c1cccc(C(=O)O)c1[N+](=O)[O-] |  | 10.2 mM (≈ 2160 µg/mL) |  |
| O=C(NCCO)C(=O)NCCO | 772 mM (≈ 136000 µg/mL) |  |  |
| NC(=O)NCC(=O)NCC(=O)O |  | 126 mM (≈ 22100 µg/mL) |  |
| Nc1ncc2nccnc2n1 | 5.04 mM (≈ 741 µg/mL) |  |  |
| O=C(NNC(=O)c1ccccc1)c1ccccc1 |  | 25.8 mM (≈ 6200 µg/mL) |  |
| O=C(O)c1ccc(Cl)o1 | 19.1 mM (≈ 2800 µg/mL) |  |  |
| CCCOC(=O)c1c(C(=O)O)cccc1[N+](=O)[O-] | 4.5 mM (≈ 1140 µg/mL) |  |  |
| CC(C)[C@@H]1NC(=O)CNC1=O |  |  | solubility: 128 mM (≈ 20000 µg/mL) |
| CC(CC(C)C(=O)O)C(=O)O (stereo unspecified) |  | 350 mM (≈ 56000 µg/mL) |  |
| Cc1cc(C)c(OCC(=O)O)c(Br)c1 | 0.753 mM (≈ 195 µg/mL) |  |  |
| CCOC(=O)[C@H](C)NC(=O)CCl |  |  | solubility: 345 mM (≈ 66700 µg/mL) |
| O=C(NCCO)c1cc(O)ccc1O |  | 286 mM (≈ 56400 µg/mL) |  |
| CCC(C)S (stereo unspecified) | 14.6 mM (≈ 1320 µg/mL) |  |  |
| CN(C)c1ncc2nccnc2n1 | 2280 mM (≈ 400000 µg/mL) |  |  |
| O=c1[nH]ccc2cccnc12 | 72 mM (≈ 10500 µg/mL) |  |  |
| ON=C1CCCCCC1=NO |  | 37.6 mM (≈ 5870 µg/mL) |  |
